Experimental data as given in patent US20120258990A1 (priority 2009, published 2012).

System: Plasmopara viticola
Test: Plasmopara viticola/Grape/Curative (Grape Downy Mildew)
Assay type: in vivo
Conditions: 200 ppm; grape seedlings cv. Gutedel, inoculated one day before application, assessed 4-6 days after application
Description: Plasmopara viticola/Grape/Curative (Grape Downy Mildew)
5-week-old grape seedlings cv. Gutedel are inoculated by spraying a sporangia suspension on their lower leaf surface one day before application. The inoculated grape plants are sprayed in a spray chamber with the formulated test compound diluted in water. The inoculated test plants are incubated at 22° C. and 100% rh in a greenhouse and the percentage leaf area covered by disease is assessed when an appropriate level of disease appears on untreated check plants (4-6 days after application).

**Q.** How did the disease control turn out when `Cc1cc(C(F)(F)F)nn1CC(=O)N(C)CCCc1nc(C(=O)N(C)[C@@H]2CCCc3ccccc32)cs1` [Compound I.d.55, 2-(3-{methyl-[2-(5-methyl-3-trifluoromethyl-pyrazol-1-yl)-acetyl]-amino}-propyl)-thiazole-4-carboxylic acid methyl-(R)-1,2,3,4-tetrahydro-naphthalen-1-yl-amide] was run?
**A.** Its disease control is “at least 80%”.
